melting point [°C]	SMILES
265 to 266	O=C(O)c1cn(-c2cccnc2)cn1
113 to 114	CNC(=O)c1c(NC)ncn1Cc1ccccc1
64 to 66	COC(=O)NCCOc1ccc(Oc2ccc(F)cc2)cc1
231	N#Cc1c(Cl)c2ccccc2n(Cc2ccc(F)cc2)c1=O
80 to 82	COC(=O)c1ccccc1NC(=O)Cl
120 to 123	O=c1oc(-c2cccc(F)c2)nc2cccc(Cl)c12
210 to 212	CC1(C)CCC(C)(C)c2cc(CCOc3ccc(C(=O)O)c(O)c3)ccc21
196 to 197	Cc1csc2nc(C(=O)O)cn12
141	CCc1cc2c(NC(C)c3ccccc3)ncnc2s1 (stereo unspecified)
206 to 209	Cc1cc2c(cc1C)N(C)C(=O)c1cccnc1N2
272 to 275	Cc1cc(-c2ccc(C(F)(F)F)cc2)nc(-c2ccc(C(=O)O)cc2)n1
198 to 199	CCCCc1nc2cnc3cccnc3c2n1CCNC(=O)OC(C)(C)C
168 to 170	NC(=O)CNC(=O)c1ccnc(-c2ccc3c(c2)C(c2ccc(Cl)cc2Cl)CC3)c1 (stereo unspecified)
101 to 103	O=[N+]([O-])c1cccnc1NCC(O)c1ccccc1 (stereo unspecified)
74 to 76	CCN1C(=O)c2cccc(C)c2Oc2ncccc21
247 to 248	CCCS(=O)(=O)c1ccc(NS(=O)(=O)c2cccs2)c2[nH]c(C(=O)O)cc12
79 to 81	OCCCc1cn(-c2ccc(C(F)(F)F)cn2)nc1OCc1ccccc1
92 to 100	Cc1ccc(C(=O)CC(O)C(=O)O)cc1 (stereo unspecified)
215 to 217	CNC(=O)c1ccc(C(=O)O)cc1N
252 to 262	Cn1c(=O)nc(N)c2ccccc21
189 to 191	Cc1ccc(-c2c(CC(=O)O)c(C3CCCCC3)nn2-c2ccccc2)cc1
119	CCCCN1C[C@@H](C(=O)O)N(C(=O)[C@H](C)CSC(=O)c2ccccc2)C1=O
91 to 92	CSc1nccc(C)c1NC(=O)CCCCCCCCSc1nc2ccccc2o1

More lines, now with the values behind:

SMILES	melting point [°C]
Brc1sc2ccccc2c1Br	57 to 59
COC(=O)COC(=O)Cc1cc(Oc2ccc(C(F)(F)F)cc2Cl)ccc1[N+](=O)[O-]	79.2 to 80.1
O=C(CCc1ccccc1)N[C@H](Cc1ccc(C(F)(F)F)cc1)[C@@H](O)c1cccc(F)c1 (racemic)	151 to 152
NC1C(=O)N(CCCO)c2ccccc2N(c2ccccc2)C1=O (stereo unspecified)	55 to 58
Cc1ccc(N2CCN(Cc3ccc4c(c3)NCCN4)CC2)cc1Cl	151 to 152
COc1cc2nc(N3CCN(c4ccc(Cl)ccc4=O)CC3)nc(N)c2cc1OC	202 to 204
C#CCN(c1c(Br)cc(Br)cc1Br)[N+](=O)[O-]	58 to 58.5
CCOC(=O)CC(=O)c1cc2cc(F)c(F)cc2nc1Cl	107
CC(C)(C)C(=O)OCc1nc2cc3c(cc2c(=O)[nH]1)CCC3	185 to 190
COc1cc2ccccc2c(=O)c2cc(Cl)sc12	190 to 194
NC(=O)Cc1cc(Oc2ccc3c(ccn3C(=O)Nc3ccc(CN4CCOCC4)c(C(F)(F)F)c3)c2)ncn1	219 to 221
O=C1c2ccccc2S(=O)(=O)N1c1c(F)c(F)nc(F)c1F	164 to 165
COC(=O)[C@H](Cc1ccc(OS(=O)(=O)C(F)(F)F)cc1)NC(=O)OC(C)(C)C	47 to 48
O=C(CCN1CCN(c2ccccc2)CC1)c1ccc2c(c1)Cc1cc(C(=O)CCN3CCN(c4ccccc4)CC3)ccc1O2	206 to 208
COc1cc(N)c(C(=O)N(C)C)cc1OC	94 to 103
CCCCOc1c(-c2ccc(S(C)(=O)=O)cc2)cnn(-c2ccc(F)c(F)c2)c1=O	129 to 132
CCCc1nc(SC2CCC(CC(=O)O)CC2)c(C(=O)O)n1Cc1cc2c(cc1Cl)OCO2 (stereo unspecified)	166
CC(C)Sc1cn(C)cc(-c2ccc(Cl)c(C(F)(F)F)c2)c1=O	127 to 129

From a melting point compilation (Tetko et al.; mined from patent text by program, amines drawn as free bases though some values may be those of a salt)
